Results: ChEMBL document CHEMBL4152362, “Discovery of DS-6930, a potent selective PPARγ modulator. Part II: Lead optimization” (Bioorg Med Chem, 2018)
In brackets after ≈: the same amount, converted by molar mass. Activity calls are given as the source filed them. The calls are words filed in the database; no cut-off is given here.

Tests used:
[1] = molecular target: T1, Peroxisome proliferator-activated receptor gamma (Homo sapiens) (UniProt P37231); test: Agonist activity at recombinant human GAL4-DBD fused PPARgamma LBD expressed in COS7 cells at 10 uM after 24 hrs by luciferase reporter gene assay relative to rosiglitazone; format: cell-based
T1 sequence (whole entry): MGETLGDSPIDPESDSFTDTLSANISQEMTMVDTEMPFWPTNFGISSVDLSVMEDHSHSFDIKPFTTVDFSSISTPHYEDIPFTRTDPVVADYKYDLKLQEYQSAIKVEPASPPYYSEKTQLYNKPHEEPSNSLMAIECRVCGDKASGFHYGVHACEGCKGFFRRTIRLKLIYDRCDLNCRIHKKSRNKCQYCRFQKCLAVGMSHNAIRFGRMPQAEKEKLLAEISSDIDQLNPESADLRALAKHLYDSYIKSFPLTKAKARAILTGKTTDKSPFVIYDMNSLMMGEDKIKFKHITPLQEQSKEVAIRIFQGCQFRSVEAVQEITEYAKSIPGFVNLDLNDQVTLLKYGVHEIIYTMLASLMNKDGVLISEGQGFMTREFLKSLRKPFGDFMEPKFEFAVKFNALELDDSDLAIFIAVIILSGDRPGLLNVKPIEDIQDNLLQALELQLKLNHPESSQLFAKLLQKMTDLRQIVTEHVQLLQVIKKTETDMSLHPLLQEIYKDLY

[2] = molecular target: T2, Peroxisome proliferator-activated receptor alpha (Homo sapiens, UniProt Q07869); test: Agonist activity at recombinant human GAL4-DBD fused PPARalpha LBD expressed in COS7 cells after 24 hrs by luciferase reporter gene assay; format: cell-based
T2 sequence (Q07869 whole entry): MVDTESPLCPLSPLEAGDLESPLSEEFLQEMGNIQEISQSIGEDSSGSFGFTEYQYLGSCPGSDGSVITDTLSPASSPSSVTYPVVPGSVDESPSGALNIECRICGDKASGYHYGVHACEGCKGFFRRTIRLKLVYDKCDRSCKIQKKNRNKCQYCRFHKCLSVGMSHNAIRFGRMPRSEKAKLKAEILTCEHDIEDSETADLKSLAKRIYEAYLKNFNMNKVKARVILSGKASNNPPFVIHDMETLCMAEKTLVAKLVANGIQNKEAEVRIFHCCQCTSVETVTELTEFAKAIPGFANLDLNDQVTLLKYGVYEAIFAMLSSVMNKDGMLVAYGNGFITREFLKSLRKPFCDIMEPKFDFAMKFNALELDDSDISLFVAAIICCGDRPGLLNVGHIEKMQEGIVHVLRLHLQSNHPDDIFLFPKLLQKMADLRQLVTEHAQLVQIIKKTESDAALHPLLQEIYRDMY

[3] = molecular target: T3, Peroxisome proliferator-activated receptor alpha (Homo sapiens) (UniProt Q07869); test: Agonist activity at recombinant human GAL4-DBD fused PPARalpha LBD expressed in COS7 cells at 10 uM after 24 hrs by luciferase reporter gene assay relative to 2-(4-tert-Butylphenoxy)-3-[4-[2-[(4-pyridin-2-ylbenzoyl)amino]ethoxy] phenyl]propionic acid; format: cell-based
T3 sequence (whole entry): T2 sequence (Q07869 whole entry)

[4] = 1-octanol/PBS distribution co-efficient, log D of the compound at […] at pH 7.4 after 30 mins by HPLC-MS/MS method; format: physicochemical
[5] = Aqueous thermodynamic solubility of the compound in pH 6.8 solution up to 4 hrs by HPLC-UV analysis; format: physicochemical; conditions: read-out: Therm_solubility
[6] = Apparent permeability of the compound after 4 hrs by PAMPA; format: ADME
[7] = Metabolic stability in human liver microsomes after 0.5 hrs; format: ADME, microsome; conditions: read-out: Stability
[8] = molecular target: T4, Peroxisome proliferator-activated receptor gamma (Homo sapiens, UniProt P37231); test: Agonist activity at recombinant human GAL4-DBD fused PPARgamma LBD expressed in COS7 cells after 24 hrs by luciferase reporter gene assay; format: cell-based
T4 sequence (P37231 whole entry): T1 sequence (whole entry)

[9] = molecular target: T5, Peroxisome proliferator-activated receptor delta (Homo sapiens) (UniProt Q03181); test: Agonist activity at PPARdelta (unknown origin) at 10 uM
T5 sequence (whole entry): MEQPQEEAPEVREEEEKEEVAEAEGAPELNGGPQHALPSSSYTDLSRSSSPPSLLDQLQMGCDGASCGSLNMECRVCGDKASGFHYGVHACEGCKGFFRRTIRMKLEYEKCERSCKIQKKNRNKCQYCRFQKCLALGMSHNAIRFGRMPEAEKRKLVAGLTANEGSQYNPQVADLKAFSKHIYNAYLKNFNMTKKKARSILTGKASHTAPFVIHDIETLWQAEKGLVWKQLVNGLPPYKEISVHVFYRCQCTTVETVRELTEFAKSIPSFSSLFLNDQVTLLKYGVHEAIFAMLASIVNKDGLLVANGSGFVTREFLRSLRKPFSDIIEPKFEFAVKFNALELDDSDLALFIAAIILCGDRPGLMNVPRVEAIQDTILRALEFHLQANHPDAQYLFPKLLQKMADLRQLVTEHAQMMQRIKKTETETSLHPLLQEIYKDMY

Row | Compound | Emax [1] [%] | EC50 [2] [nM] | Emax [3] [%] | logD at 0.5 h [4] | solubility thermodynamic at 4 h [5] [µg/mL] | Papp at 4 h [6] [×10⁻⁶ cm/s] | remaining at 0.5 h [7] [%] | EC50 [8] [nM] | Activity [9]
1 | Cc1cc(F)cnc1Oc1ccc2nc(COc3cccc(C(=O)O)c3)n(C)c2c1 | 100 | > 10000 | 2 | 1.1 | 14 (≈ 34.4 µM) | 8.3 | 93 | – | –
2 | Cn1c(COc2cccc(C(=O)O)c2)nc2ccc(Oc3ccc(Cl)c(F)c3)nc21 | 88 | > 10000 | 45 | 2.2 | 1.7 (≈ 3.97 µM) | 25.6 | 92 | 269 | inactive
3 | Cc1ccc(C)c(Oc2ccc3nc(COc4cccc(C(=O)O)c4)n(C)c3c2)n1 | 117 | > 10000 | 7 | 1.4 | 85 (≈ 211 µM) | 11 | – | 717 | –
4 | Cc1ccc(Oc2ccc3nc(COc4cccc(C(=O)O)c4)n(C)c3c2)nc1 | 42 | > 10000 | 4 | 0.9 | 31 (≈ 79.6 µM) | 4.8 | 94 | 129 | –
5 | Cl.Cl.Cn1c(COc2cccc(C(=O)O)c2)nc2ccc(Oc3ccccc3)nc21 | 61 | – | – | 1.2 | 160 | – | 100 | – | inactive
6 | Cn1c(COc2cccc(C(=O)O)c2)nc2ccc(Oc3ncccc3F)cc21 | 80 | > 10000 | 3 | 0.6 | 7.1 (≈ 18 µM) | 3.9 | 100 | 280 | –
7 | Cc1cnc(Oc2ccc3nc(COc4cccc(C(=O)O)c4)n(C)c3c2)c(F)c1 | 74 | – | 4 | – | – | – | – | – | –
8 | Cc1ccc(Oc2ccc3nc(COc4cccc(C(=O)O)c4)n(C)c3n2)cc1F | 80 | – | 56 | 2.1 | 5.2 (≈ 12.8 µM) | 14.8 | 96 | 50 | inactive
9 | Cn1c(COc2cccc(C(=O)O)c2)nc2ccc(Oc3ccccn3)cc21 | 74 | > 10000 | 1 | 0.4 | 62 (≈ 165 µM) | 2.2 | 100 | 1130 | –
10 | Cn1c(COc2cccc(C(=O)O)c2)nc2ccc(Oc3cccc(Cl)n3)cc21 | 67 | > 10000 | 13 | 1.2 | 7.7 (≈ 18.8 µM) | 7.6 | 98 | 736 | –
11 | Cn1c(COc2cccc(C(=O)O)c2)nc2ccc(Oc3ccc(F)cc3)nc21 | 62 | – | 55 | 1.5 | 11 (≈ 28 µM) | 8.6 | 78 | 1060 | inactive
12 | Cn1c(COc2cccc(C(=O)O)c2)nc2ccc(Oc3cc(Cl)ccn3)cc21 | 93 | > 10000 | 11 | 1.2 | 11 (≈ 26.8 µM) | 10.3 | – | 615 | –
13 | Cn1c(COc2cccc(C(=O)O)c2)nc2ccc(Oc3ncccc3Cl)cc21 | 93 | > 10000 | 6 | 1.1 | 15 (≈ 36.6 µM) | 8.1 | 99 | 200 | –
14 | Cc1cccc(Oc2ccc3nc(COc4cccc(C(=O)O)c4)n(C)c3c2)n1 | 78 | > 10000 | 1 | 0.8 | 92 (≈ 236 µM) | 2.7 | 100 | 1890 | –
15 | Cc1ccnc(Oc2ccc3nc(COc4cccc(C(=O)O)c4)n(C)c3c2)c1 | 41 | > 10000 | 2 | 0.8 | 33 (≈ 84.7 µM) | 3.5 | – | 458 | –
16 | COC(=O)c1cccc(OCc2nc3ccc(Oc4ccccc4)nc3n2C)c1 | 65 | – | – | – | – | – | – | 12400 | –
17 | Cn1c(COc2cccc(C(=O)O)c2)nc2ccc(Oc3ccc(F)cn3)cc21 | 87 | > 10000 | 5 | 0.6 | 79 (≈ 201 µM) | 4.7 | – | 808 | –
18 | Cc1ccc(Oc2ccc3nc(COc4cccc(C(=O)O)c4)n(C)c3c2)nc1C | 81 | > 10000 | 8 | 1.3 | 190 (≈ 471 µM) | 7.7 | 100 | 176 | –
19 | Cc1cccnc1Oc1ccc2nc(COc3cccc(C(=O)O)c3)n(C)c2c1 | 83 | > 10000 | 8 | 0.9 | 37 (≈ 95 µM) | 6 | 100 | 351 | –
